The subject of data set [1] is A2780 human ovarian cancer cells. The data set can be described thus: In vitro growth inhibition assay (SRB), A2780. Type of data set: cell-based. The conditions noted are these: A2780, Supplementary Table 3. The method, then: A2780 human ovarian carcinoma and MRC5 human fetal lung fibroblasts were obtained from the European Collection of Cell Cultures. Both cell lines were grown in Roswell Park Memorial Institute medium (RPMI-1640) supplemented with 10% of fetal calf serum, 1% of 2 mM glutamine and 1% penicillin/streptomycin. All cells were grown as adherent monolayers at 310 K in a 5% CO2-humidified atmosphere and passaged at ca. 70–80% confluency.
The antiproliferative activity of complexes 1–8 was determined in A2780 ovarian cancer cells and MRC5 fibroblasts. Briefly, 96-well plates were used to seed 5,000 cells per well. The plates were left to pre-incubate with drug-free medium at 310 K for 48 h before adding different concentrations of the compounds to be tested. A drug exposure period of 24 h was allowed. After this, supernatants were removed by suction and each well was washed with PBS. A further 72 h were allowed for the cells to recover in drug-free medium at 310 K. The sulforhodamine B (SRB) assay was used to determine cell viability. IC50 values, as the concentration that causes 50% cell death, were determined as duplicates of triplicates in two independent sets of experiments and their s.d. were calculated.

Data set [2] is described as follows: Transfer hydrogenation of NAD+ to 1,4-NADH with formate, followed by 1H NMR. The note with it: for TOF D2O/MeOH-d4: 23% MeOH-d4/77% D2O; for TOF D2O/MeOH-d4 / TOF D2O: NAD+ 2 mol equiv, formate 25 mol equiv, 310 K, pH* 7.2. The method, then: Complexes 1–7 were dissolved in MeOH-d4/D2O (5:1 v/v, 1.4 mM, 4 ml). Solutions of sodium formate (35 mM, 4 ml) and NAD^+ in D2O (2.8 mM, 2 ml) were also prepared and incubated at 310 K. In a typical experiment, 200-μl aliquots of each solution were added to a 5-mm NMR tube and the pH* adjusted to 7.2±0.1 (total volume 0.635 ml, final concentrations: Ru complex 0.44 mM; NAD^+ 0.88 mM; formate 11.02 mM; molar ratio 1:2:25). ^1H NMR spectra were recorded at 310 K every 162 s until the completion of the reaction.
Molar ratios of NAD^+ and NADH were determined by integrating the peaks at 9.33 and 6.96 p.p.m. (NAD^+ and 1,4-NADH, respectively). The turnover number for the reaction was calculated as follows: […]
where In is the integral of the signal at n p.p.m. and [NAD^+]0 is the concentration of NAD^+ at the start of the reaction.

Data set [3] deals with A2780 ovarian cancer cells. The data set can be described thus: Cell viability on co-administration of Ru complexes (1/3 x IC50) with formate or acetate. Type of data set: cell-based, human. The note with it: for Cell viability: A2780, complex 1/3 x IC50, 24 h. The method, then: Cell viability assays were carried out with complexes 1–8 in A2780 ovarian cancer cells. These experiments were carried out as described above with the following modifications: a fixed concentration of each Ru complex equal to 1/3 × IC50 was used in co-administration with three different concentrations of sodium formate or sodium acetate (0.5, 1.0 and 2.0 mM). To prepare the stock solution of the drug, the complex was dissolved in 5% dimethylsulfoxide and diluted in a 1:1 mixture of 0.9% saline:cell culture medium. This stock was further diluted using RPMI-1640 until working concentrations were achieved. Separately, stock solutions of sodium formate or sodium acetate were prepared in saline. The complex and formate were added to each well independently, but within 5 min of each other.
Supplementary Table 7: Percent cell viability of A2780 ovarian cancer cells exposed to equipotent concentrations of ruthenium complexes 1-3 and 5-8 (1/3 x […]
The experiments included 48 h of pre-incubation and 72 h of drug recovery, both in drug-free medium at 310 K in a 5% CO2 humidified atmosphere. All the experiments were performed as duplicates of triplicates in independent experiments and the error bars were calculated as the standard deviation from the mean.
Supplementary Table 11: Cell viability (%) of A2780 ovarian cancer cells exposed […]
administered with different concentrations of sodium acetate (0, 0.5, 1 and 2 mM).
The experiments involved 48 h of pre-incubation and 72 h of drug recovery, both in […]
Cell viability percentages (%)
Complex Acetate concentration (mM)

A short description of data set [4]: pKa* of aqua adducts of the complexes. Type of data set: physicochemical. The conditions noted are these: pKa value determined in deuterated solvent. The source says: Table 1 pKa* values for aqua adducts of catalysts 1–4 (and 8 for comparison) and turnover frequencies for transfer hydrogenation of NAD^+ using formate. | column: pKa*
The subject of data set [5] is A2780 ovarian cancer cells. The data set can be described thus: Ruthenium accumulation in cancer cells (ICP-MS). Type of data set: cell-based, human. The conditions noted are these: for Cell Ru: A2780, 1/3 x IC50, 24 h drug exposure, no recovery time; for Cell accum.: A2780, 24 h, 1/3 x IC50. The method, then: Briefly, 1.5 × 10^6 cells per well were seeded on a six-well plate. […] After this time, cells were washed, treated with trypsin-EDTA, counted and cell pellets were collected. Each pellet was digested overnight in concentrated nitric acid (73%) at 353 K; the resulting solutions were diluted using double-distilled water to give a final concentration of 5% HNO3 and the amount of Ru taken up by the cells was determined by ICP–MS. […]
Supplementary Table 3: Antiproliferative activity of complexes 1-8 in A2780 ovarian cancer cells and their cellular accumulation (expressed as ng Ru per million cells).
The latter experiments were carried out using equipotent concentrations of the […]
experiments were performed as duplicates of triplicates in independent experiments and the error bars were calculated as the standard deviation from the mean. […]

The subject of a further data set is 9-ethylguanine. Description: Binding to model nucleobase 9-ethylguanine by 1H NMR. The note with it: D2O, pH* 7.2 ± 0.1, 310 K. The method, then:
Supplementary Table 4: Binding constants for formation of 9-EtG adducts of complexes 1-4 determined by 1H NMR. The experiments were performed in D2O, pH* 7.2 ± 0.1 and 310 K. Equilibrium was reached by the time the first 1H NMR spectrum was recorded (< 10 min). […]
DNA is believed to be the main target for [(bip)Ru(en)Cl]+ (8). Due to the structural similarity of the complexes 1-5 with complex 8, their binding to DNA was […]
Interaction with nucleobases
Initially, model nucleobases, 9-ethylguanine and 9-methyladenine were reacted with complexes 1-4 in D2O, 310 K and pH* 7.2 ± 0.1. The binding of the complexes to 9-EtG or 9-MeA was monitored by 1H-NMR spectroscopy. Peaks for the 9-EtG adducts were observed by the time the first spectrum was recorded (< 5 min after mixing), […]
equilibrium was reached rapidly. The binding constants for formation of 9-EtG adducts determined by NMR were between 60 and 106 mM-1 (Supplementary Table 4). These values are in the same range as that from the ethylenediamine complex [(bip)Ru(en)Cl]+ (K9-EtG= 60.3 mM-1),2 which also binds strongly to DNA.3, 4 The high resolution mass spectrum confirmed the formation of [(η6-arene)Ru(XEn)(9-EtG)]+ (Supplementary Table 5). The interaction of complexes 1-4 with 9-MeA was also investigated, but no reaction was detected by 1H-NMR.
It is well established that N7 of guanine is the preferred nucleotide binding site for many transition metals ions. 2-8 Furthermore, strong and selective binding to N7 of 9-EtG, has been observed for [(η6-arene)Ru(en)Cl]+.3, 4 A pH* titration of […]

Data set [6] can be described thus: pH* titration of the 9-EtG adduct (1H NMR). It is filed as physicochemical. The note with it: protonation/deprotonation of N1 of coordinated 9-EtG, H8 chemical shift versus pH*. The source says:
[(p-cym)Ru(TsEn)(9-EtG)]+ was used to confirm that the complex binds to N7. A plot
of the chemical shift of H8 from bound 9-EtG (Supplementary Figure 3), versus pH*
from coordinated 9-EtG and therefore we conclude that the binding of complex 2 to […]

Several values for one entry are separate records, joined by “and”; a condition that tells them apart may be missing. Equal values may be shown once.

The term IC50 denotes the concentration that inhibits the measured activity by half.

Regarding `CS(=O)(=O)[N-]CCN.Cc1ccc(C(C)C)cc1.[Cl-].[Ru+2]` [Complex 1, [(p-cym)Ru(MsEn)Cl]], the IC50 in data set [1] was 11.9 ± 0.8 µM. Moreover, the “TOF D2O/MeOH-d4” value in data set [2] amounted to 1.25 ± 0.03 h⁻¹. Besides, the “TOF D2O” value in data set [2] worked out at 1.11 ± 0.02 h⁻¹. Further, the Cell viability was 61± 1% in data set [3] (formate 0.5 mM); 40.0 ± 0.4% in data set [3] (formate 1 mM); 1.5 ± 0.1% and ~1% in data set [3] (formate 2 mM). In data set [3] (A2780, formate increased from 0 to 2 mM), the “decrease in cell survival” value is “ca. 50 fold”. Besides, the “pKa*” value in data set [4] came to 9.86±0.01. Besides, in data set [5], the “Cell Ru” value came out at 0.16 ± 0.02 ng x 106 cells. Moreover, in data set [5], the Cell accum. worked out at 0.16 ng Ru/10^6 cells. Further, the “Binding constant for formation of 9-EtG adducts” value (“Binding constant for formation” below) in the data set on 9-ethylguanine turned out to be 105.4 ± 2.3 mM⁻¹.
`Cc1ccc(C(C)C)cc1.NCC[N-]S(=O)(=O)c1ccc(C(F)(F)F)cc1.[Cl-].[Ru+2]` [Complex 3, [(p-cym)Ru(TfEn)Cl]] came in with a concentration for half-maximal inhibition (IC50) in data set [1] of 14.2 ± 0.8 µM. In addition, the “TOF D2O/MeOH-d4” value in data set [2] was 5.7 ± 0.3 h⁻¹. Further, the “TOF D2O” value in data set [2] is 3.06 ± 0.05 h⁻¹. In addition, the Cell viability in data set [3] (formate 0 mM) worked out at 71 ± 2%; in data set [3] (formate 0.5 mM) it was 60± 2%; in data set [3] (formate 1 mM) it was 39.4 ± 2.0%; in data set [3] (formate 2 mM), 19 ± 2%. Moreover, the “pKa*” value in data set [4] was found to be 9.71±0.01. For the same compound, in data set [5], the “Cell Ru” value was 0.31 ± 0.04 ng x 106 cells. In data set [5], this compound gave a Cell accum. of 0.31 ng Ru/10^6 cells. The “Binding constant for formation” value in the data set with 9-ethylguanine was 60.5 ± 6.0 mM⁻¹.
The compound `Cc1ccc(C(C)C)cc1.NCC[N-]S(=O)(=O)c1ccc([N+](=O)[O-])cc1.[Cl-].[Ru+2]` [Complex 4, [(p-cym)Ru(NO2En)Cl]] gave an IC50 in data set [1] of 14.7 ± 0.6 µM. The “time for completion of the catalytic reaction” value in data set [2] (6 mol equiv of NAD+) is 20.5 min. Further, in data set [2], the “TOF D2O/MeOH-d4” value was determined as 9.6 ± 0.3 h⁻¹ and the “TOF D2O” value worked out at 4.1 ± 0.1 h⁻¹. Further, in data set [4], the “pKa*” value was determined as 9.56±0.04. The “Binding constant for formation” value in the data set with 9-ethylguanine worked out at 92.8 ± 1.0 mM⁻¹.
In the case of `CCn1cnc2c(=O)[nH]c(N)nc21.Cc1ccc(C(C)C)cc1.Cc1ccc(S(=O)(=O)[N-]CCN)cc1.[Ru+2]` [[(p-cym)Ru(TsEn)(9-EtG)]+], the “pKa*” value in data set [6] came to 8.77.

Values taken from publication PMC4383003, “Transfer hydrogenation catalysis in cells as a new approach to anticancer drug design” (Nature Communications, 2015).
